Laboratory results from US12583851B2, “Heteroaryl-substituted pyrazine derivatives as pesticides” (Elanco Animal Health GmbH, priority 2019, dated 2026).

Tests used:
Assay type in all cases: in vivo
[1] = system: Rhipicephalus (Boophilus) microplus larvae (strain Parkhurst, resistant against synthetic pyrethroids); test: Rhipicephalus (Boophilus) microplus in-vitro contact test, larval cattle tick; settings: after 48 hours, read-out: efficacy (larvae dead or moribund); for pest or weed control at 1 µg/cm2, 100 g/ha: 1 μg/cm^2 (=100 g/ha); for pest or weed control at 5 µg/cm2, 500 g/ha: 5 μg/cm^2 (=500 g/ha)
Protocol: Rhipicephalus (Boophilus) microplus—In-Vitro Contact Tests Larval Cattle Tick (Strain Parkhurst, Resistant Against Synthetic Pyrethroids)
9 mg compound is solved in 1 mL acetone and diluted with acetone to the desired concentration. […] the test solution is filled in 25 mL glass test tubes and homogeneously distributed on the inner walls by rotation and tilting on a shaking device (2 h at 30 rpm). With a compound concentration of 900 ppm, an inner surface of 44.7 cm^2 and a homogeneous distribution, a dose of 5 μg/cm^2 is achieved.
After the solvent has evaporated, each test tube is filled with 20-50 cattle tick larvae (Rhipicephalus microplus), closed with a perforated lid and incubated in a horizontal position at 85% relative humidity and 27° C. in an incubator. After 48 hours efficacy is determined. The larvae are patted on the ground of the tubes and negative geotactic behaviour is recorded.
An efficacy of 100% means all larvae are dead or moribund; 0% means no larvae are dead or moribund.

[2] = system: larvae of the banded cucumber beetle (Diabrotica balteata); test: Diabrotica balteata spray test; settings: 168 h, after 7 days, read-out: efficacy (seedling growth); for pest or weed control at 32 µg/disc, 100 g/ha: 100 g/ha (=32 μg/well); for pest or weed control at 6.4 µg/disc, 20 g/ha: 20 g/ha (=6.4 μg/well)
Protocol: Diabrotica balteata—Spray Test
Solvent: 78.0 parts by weight of acetone • • 1.5 parts by weight of dimethylformamide
(§1) Emulsifier: alkylarylpolyglycol ether
(§2) To produce a suitable preparation of active compound, 1 part by weight of active compound is mixed with the stated amount of solvent, and the concentrate is diluted with water, containing an emulsifier concentration of 1000 ppm, to the desired concentration. Further test concentrations are prepared by dilution with emulsifier containing water.
Soaked wheat seeds (Triticum aestivum) are placed in a multiple well plate filled with agar and some water and are incubated for 1 day to germinate (5 seeds per well). The germinated wheat seeds are sprayed with a test solution containing the desired concentration of the active ingredient. Afterwards each unit is infected with 10-20 larvae of the banded cucumber beetle (Diabrotica balteata).
After 7 days efficacy in % is determined. 100% means all the seedlings have grown up like in the untreated, uninfected control; 0% means none of the seedlings have grown.

[3] = system: fall armyworm larvae (Spodoptera frugiperda); test: Spodoptera frugiperda spray test; settings: 168 h, maize leaf sections, after 7 days
Protocol: Spodoptera fruaiperda—Spray Test
Solvent: 78.0 parts by weight acetone • 1.5 parts by weight dimethylformamide
as §1
as §2, with “solvents” for “solvent,”, “and” for “and the concentrate”
Maize (Zea mays) leaf sections are sprayed with a preparation of the active ingredient of the desired concentration. Once dry, the leaf sections are infested with fall armyworm larvae (Spodoptera frugiperda).
After 7 days mortality in % is determined. 100% means all caterpillars have been killed and 0% means none of the caterpillars have been killed.

Structure (SMILES): CC(NC(=O)c1cc(Cl)cc(S(=O)(=O)C(F)(F)F)c1)c1nccnc1-n1cc(C#N)cn1 (racemic) [Example I-114, (rac)-3-Chloro-N-{1-[3-(4-cyano-1H-pyrazol-1-yl)pyrazin-2-yl]ethyl}-5-(trifluoromethanesulfonyl)benzamide]
- pest or weed control at 1 µg/cm2, 100 g/ha [1]: 90%
- pest or weed control at 5 µg/cm2, 500 g/ha [1]: 90%
- pest or weed control at 32 µg/disc, 100 g/ha [2]: 100%
- mortality at 100 g/ha [3]: 100%

Structure (SMILES): Cc1cnc(C(C)NC(=O)c2cc(C(F)(F)F)cc(C(F)(F)F)c2)c(-c2ncc(C(=O)N(C)CC#N)s2)n1 (racemic) [Example I-124, (rac)-2-(3-{1-[3,5-Bis(trifluoromethyl)benzamido]ethyl}-6-methylpyrazin-2-yl)-N-(cyanomethyl)-N-methyl-1,3-thiazole-5-carboxamide]
- pest or weed control at 1 µg/cm2, 100 g/ha [1]: 100%
- pest or weed control at 5 µg/cm2, 500 g/ha [1]: 100%
- pest or weed control at 6.4 µg/disc, 20 g/ha [2]: 100%
- pest or weed control at 32 µg/disc, 100 g/ha [2]: 100%
- mortality at 100 g/ha [3]: 100%

Structure (SMILES): CC(NC(=O)c1cc(Br)cc(OC(F)(F)F)c1)c1nccnc1-n1cc(C#N)cn1 (racemic) [Example I-102, (rac)-3-Bromo-N-{1-[3-(4-cyano-1H-pyrazol-1-yl)pyrazin-2-yl]ethyl}-5-(trifluoromethoxy)benzamide]
- pest or weed control at 1 µg/cm2, 100 g/ha [1]: 90%
- pest or weed control at 5 µg/cm2, 500 g/ha [1]: 90%
- pest or weed control at 6.4 µg/disc, 20 g/ha [2]: 100%
- pest or weed control at 32 µg/disc, 100 g/ha [2]: 100%
- mortality at 100 g/ha [3]: 100%

Structure (SMILES): CC(NC(=O)c1cc(C#N)cc(OC(F)(F)F)c1)c1nccnc1-n1cc(C#N)cn1 (racemic) [Example I-116, (rac)-3-Cyano-N-{1-[3-(4-cyano-1H-pyrazol-1-yl)pyrazin-2-yl]ethyl}-5-(trifluoromethoxy)benzamide]
- pest or weed control at 1 µg/cm2, 100 g/ha [1]: 90%
- pest or weed control at 5 µg/cm2, 500 g/ha [1]: 100%
- pest or weed control at 6.4 µg/disc, 20 g/ha [2]: 100%
- pest or weed control at 32 µg/disc, 100 g/ha [2]: 100%
- mortality at 100 g/ha [3]: 100%

Structure (SMILES): CC(NC(=O)c1cc(C(F)(F)F)cc(C(F)(F)F)c1)c1nccnc1-c1ncc(C(=O)N(C)C)s1 (racemic) [Example I-69, (rac)-2-(3-{1-[3,5-Bis(trifluoromethyl)benzamido]ethyl}pyrazin-2-yl)-N,N-dimethyl-1,3-thiazole-5-carboxamide]
- pest or weed control at 1 µg/cm2, 100 g/ha [1]: 100%
- pest or weed control at 5 µg/cm2, 500 g/ha [1]: 100%
- pest or weed control at 6.4 µg/disc, 20 g/ha [2]: 100%
- pest or weed control at 32 µg/disc, 100 g/ha [2]: 100%
- mortality at 100 g/ha [3]: 100%

Structure (SMILES): CC(NC(=O)c1cc(C(F)(F)F)cc(C(F)(F)F)c1)c1nccnc1-n1cc(C(F)(F)F)cn1 (racemic) [Example I-92, (rac)-3,5-Bis(trifluoromethyl)-N-[1-{3-[4-(trifluoromethyl)-1H-pyrazol-1-yl]pyrazin-2-yl}ethyl]benzamide]
- pest or weed control at 1 µg/cm2, 100 g/ha [1]: 100%
- pest or weed control at 5 µg/cm2, 500 g/ha [1]: 100%
- pest or weed control at 6.4 µg/disc, 20 g/ha [2]: 100%
- pest or weed control at 32 µg/disc, 100 g/ha [2]: 100%
- mortality at 100 g/ha [3]: 100%

Structure (SMILES): CC(NC(=O)c1cc(Br)cc(OC(F)(F)F)c1)c1nccnc1-c1ncc(C(=O)N(C)CC#N)s1 (racemic) [Example I-75, (rac)-2-(3-{1-[3-Bromo-5-(trifluoromethoxy)benzamido]ethyl}pyrazin-2-yl)-N-(cyanomethyl)-N-methyl-1,3-thiazole-5-carboxamide]
- pest or weed control at 1 µg/cm2, 100 g/ha [1]: 90%
- pest or weed control at 5 µg/cm2, 500 g/ha [1]: 90%
- pest or weed control at 32 µg/disc, 100 g/ha [2]: 100%
- mortality at 100 g/ha [3]: 100%

Structure (SMILES): CC(NC(=O)c1cc(Br)cc(C(F)(F)F)c1)c1nccnc1-n1cc(C#N)cn1 (racemic) [Example I-113, (rac)-3-Bromo-N-{1-[3-(4-cyano-1H-pyrazol-1-yl)pyrazin-2-yl]ethyl}-5-(trifluoromethyl)benzamide]
- pest or weed control at 1 µg/cm2, 100 g/ha [1]: 100%
- pest or weed control at 5 µg/cm2, 500 g/ha [1]: 100%
- pest or weed control at 6.4 µg/disc, 20 g/ha [2]: 100%
- pest or weed control at 32 µg/disc, 100 g/ha [2]: 100%
- mortality at 100 g/ha [3]: 100%

Structure (SMILES): CC(NC(=O)c1cc(OC(F)F)cc(OC(F)F)c1)c1nccnc1-c1ncc(C(=O)N(C)CC2CC2)s1 (racemic) [Example I-143, (rac)-2-(3-{1-[3,5-Bis(difluoromethoxy)benzamido]ethyl}pyrazin-2-yl)-N-(cyclopropylmethyl)-N-methyl-1,3-thiazole-5-carboxamide]
- pest or weed control at 1 µg/cm2, 100 g/ha [1]: 100%
- pest or weed control at 5 µg/cm2, 500 g/ha [1]: 90%
- pest or weed control at 6.4 µg/disc, 20 g/ha [2]: 100%
- pest or weed control at 32 µg/disc, 100 g/ha [2]: 100%
- mortality at 100 g/ha [3]: 100%

Structure (SMILES): CC(NC(=O)c1cc(C(F)(F)F)cc(C(F)(F)F)c1)c1nccnc1-c1ncc(C(=O)N(C)CC2CC2)s1 (racemic) [Example I-51, (rac)-2-(3-{1-[3,5-Bis(trifluoromethyl)benzamido]ethyl}pyrazin-2-yl)-N-(cyclopropylmethyl)-N-methyl-1,3-thiazole-5-carboxamide]
- pest or weed control at 1 µg/cm2, 100 g/ha [1]: 90%
- pest or weed control at 5 µg/cm2, 500 g/ha [1]: 90%
- pest or weed control at 6.4 µg/disc, 20 g/ha [2]: 100%
- pest or weed control at 32 µg/disc, 100 g/ha [2]: 100%
- mortality at 100 g/ha [3]: 100%

Structure (SMILES): CC(NC(=O)c1cc(C(F)(F)F)cc(C(F)(F)F)c1)c1nccnc1-n1cc(C#N)cn1 (racemic) [Example I-100, N-{(rac)-1-[3-(4-Cyano-1H-pyrazol-1-yl)pyrazin-2-yl]ethyl}-3,5-bis(trifluoromethyl)benzamide]
- pest or weed control at 1 µg/cm2, 100 g/ha [1]: 100%
- pest or weed control at 5 µg/cm2, 500 g/ha [1]: 100%
- pest or weed control at 6.4 µg/disc, 20 g/ha [2]: 100%
- pest or weed control at 32 µg/disc, 100 g/ha [2]: 100%
- mortality at 100 g/ha [3]: 100%

Structure (SMILES): CC(NC(=O)c1cc(Br)cc(OC(F)(F)F)c1)c1nccnc1-c1ncc(C(=O)N(C)CC2CC2)s1 (racemic) [Example I-76, (rac)-2-(3-{1-[3-Bromo-5-(trifluoromethoxy)benzamido]ethyl}pyrazin-2-yl)-N-(cyclopropylmethyl)-N-methyl-1,3-thiazole-5-carboxamide]
- pest or weed control at 1 µg/cm2, 100 g/ha [1]: 100%
- pest or weed control at 5 µg/cm2, 500 g/ha [1]: 100%
- pest or weed control at 6.4 µg/disc, 20 g/ha [2]: 100%
- pest or weed control at 32 µg/disc, 100 g/ha [2]: 100%
- mortality at 100 g/ha [3]: 100%

Structure (SMILES): CC(NC(=O)c1cc(C#N)cc(C(F)(F)F)c1)c1nccnc1-n1cc(C#N)cn1 (racemic) [Example I-115, (rac)-3-Cyano-N-{1-[3-(4-cyano-1H-pyrazol-1-yl)pyrazin-2-yl]ethyl}-5-(trifluoromethyl)benzamide]
- pest or weed control at 1 µg/cm2, 100 g/ha [1]: 100%
- pest or weed control at 5 µg/cm2, 500 g/ha [1]: 100%
- pest or weed control at 6.4 µg/disc, 20 g/ha [2]: 100%
- pest or weed control at 32 µg/disc, 100 g/ha [2]: 100%
- mortality at 100 g/ha [3]: 100%

Structure (SMILES): CC(NC(=O)c1cc(C(F)(F)F)cc(C(F)(F)F)c1)c1nccnc1-n1cc(C(=O)N2CCOCC2)cn1 (racemic) [Example I-90, N-[(rac)-1-{3-[4-(Morpholine-4-carbonyl)-1H-pyrazol-1-yl]pyrazin-2-yl}ethyl]-3,5-bis(trifluoromethyl)benzamide]
- pest or weed control at 1 µg/cm2, 100 g/ha [1]: 100%
- pest or weed control at 5 µg/cm2, 500 g/ha [1]: 100%
- pest or weed control at 32 µg/disc, 100 g/ha [2]: 100%
- mortality at 100 g/ha [3]: 100%

Structure (SMILES): CCN(C)C(=O)c1cnn(-c2nccnc2C(C)NC(=O)c2cc(C(F)(F)F)cc(C(F)(F)F)c2)c1 (racemic) [Example I-89, (rac)-1-(3-{1-[3,5-Bis(trifluoromethyl)benzamido]ethyl}pyrazin-2-yl)-N-ethyl-N-methyl-1H-pyrazole-4-carboxamide]
- pest or weed control at 1 µg/cm2, 100 g/ha [1]: 100%
- pest or weed control at 5 µg/cm2, 500 g/ha [1]: 100%
- pest or weed control at 6.4 µg/disc, 20 g/ha [2]: 100%
- pest or weed control at 32 µg/disc, 100 g/ha [2]: 100%
- mortality at 100 g/ha [3]: 100%

Structure (SMILES): CC(NC(=O)c1cc(Cl)cc(C(F)(F)F)c1)c1nccnc1-c1ccc(C(F)(F)F)cn1 (racemic) [Example I-46, (rac)-3-Chloro-5-(trifluoromethyl)-N-[1-{3-[5-(trifluoromethyl)pyridin-2-yl]pyrazin-2-yl}ethyl]benzamide]
- pest or weed control at 1 µg/cm2, 100 g/ha [1]: 100%
- pest or weed control at 5 µg/cm2, 500 g/ha [1]: 100%
- pest or weed control at 32 µg/disc, 100 g/ha [2]: 100%
- mortality at 100 g/ha [3]: 100%
